Test results from patent publication US20220227789A1, “NOVEL INDOLIZINE-2-CARBOXAMIDES ACTIVE AGAINST THE HEPATITIS B VIRUS (HBV)” (AiCuris GmbH & Co. KG, priority 2019, published 2022).

Key:
[1] = biological target: T1, HBV core protein (C-terminal truncated, 149 aa assembly domain) (Hepatitis B virus genotype D subtype adw, UniProt P03147, C107A/C48A/C61A); test: Biochemical capsid assembly assay (fluorescence quenching); settings: BODIPY-FL labelled core protein, assembly started with NaCl, read after 6 min; read-out: Assembly Activity
T1 construct: The C-terminal truncated core protein containing 149 amino acids of the N-terminal assembly domain; made in house; host or cells: E. coli BL21 (DE3) Rosetta2, plasmid pET21b
T1 sequence (P03147 1-150, looked up, stated change not applied): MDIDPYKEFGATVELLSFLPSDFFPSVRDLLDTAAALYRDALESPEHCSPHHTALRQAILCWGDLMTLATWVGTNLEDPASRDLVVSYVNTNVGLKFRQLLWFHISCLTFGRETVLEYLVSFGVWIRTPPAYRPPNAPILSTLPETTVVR
Method: Biochemical Capsid Assembly Assay
The screening for assembly effector activity was done based on a fluorescence quenching assay published by Zlotnick et al. (2007). The C-terminal truncated core protein containing 149 amino acids of the N-terminal assembly domain fused to a unique cysteine residue at position 150 and was expressed in E. coli using the pET expression system (Merck Chemicals, Darmstadt). Purification of core dimer protein was performed using a sequence of size exclusion chromatography steps. In brief, the cell pellet from 1 L BL21 (DE3) Rosetta2 culture expressing the coding sequence of core protein cloned NdeI/XhoI into expression plasmid pET21b was treated for 1 h on ice with a native lysis buffer (Qproteome Bacterial Protein Prep Kit; Qiagen, Hilden). After a centrifugation step the supernatant was precipitated during 2 h stirring on ice with 0.23 g/ml of solid ammonium sulfate. Following further centrifugation the resulting pellet was resolved in buffer A (100 mM Tris, pH 7.5; 100 mM NaCl; 2 mM DTT) and was subsequently loaded onto a buffer A equilibrated CaptoCore 700 column (GE HealthCare, Frankfurt). The column flow through containing the assembled HBV capsid was dialyzed against buffer N (50 mM NaHCO3 pH 9.6; 5 mM DTT) before urea was added to a final concentration of 3M to dissociate the capsid into core dimers for 1.5 h on ice. The protein solution was then loaded onto a 1 L Sephacryl 5300 column. After elution with buffer N core dimer containing fractions were identified by SDS-PAGE and subsequently pooled and dialyzed against 50 mM HEPES pH 7.5; 5 mM DTT. To improve the assembly capacity of the purified core dimers a second round of assembly and disassembly starting with the addition of 5 M NaCl and including the size exclusion chromatography steps described above was performed. From the last chromatography step core dimer containing fractions were pooled and stored in aliquots at concentrations between 1.5 to 2.0 mg/ml at −80° C.
Immediately before labelling the core protein was reduced by adding freshly prepared DTT in a final concentration of 20 mM. After […] on ice storage buffer and DTT was removed using a Sephadex G-25 column (GE HealthCare, Frankfurt) and 50 mM HEPES, pH 7.5. For labelling 1.6 mg/ml core protein was incubated at 4° C. and darkness overnight with BODIPY-FL maleimide (Invitrogen, Karlsruhe) in a final concentration of 1 mM. After labelling the free dye was removed by an additional desalting step using a Sephadex G-25 column. Labelled core dimers were stored in aliquots at 4° C. In the dimeric state the fluorescence signal of the labelled core protein is high and is quenched during the assembly of the core dimers to high molecular capsid structures. The screening assay was performed in black 384 well microtiter plates in a total assay volume of 10 μl using 50 mM HEPES pH 7.5 and 1.0 to 2.0 μM labelled core protein. Each screening compound was added in 8 different concentrations using a 0.5 log-unit serial dilution starting at a final concentration of 100 μM, 31.6 μM or 10 μM, In any case the DMSO concentration over the entire microtiter plate was 0.5%. The assembly reaction was started by the injection of NaCl to a final concentration of […] which induces the assembly process to approximately 25% of the maximal quenched signal. 6 min after starting the reaction the fluorescence signal was measured using a Clariostar plate reader (BMG Labtech, Ortenberg) with an excitation of 477 nm and an emission of 525 nm. As 100% and 0% assembly control HEPES buffer containing 2.5 M and 0 M NaCl was used. Experiments were performed thrice in triplicates. EC50 values were calculated by non-linear regression analysis using the Graph Pad Prism 6 software (GraphPad Software, La Jolla, USA).

HBV = HBV replication assay: HBV DNA from the supernatants of HepAD38 cells; format: cell-based; settings: Hepatitis B virus, 144 h, HBV DNA in supernatant by qPCR at day 6, read-out: Cell Activity
Method: Determination of HBV DNA from the Supernatants of HepAD38 Cells
The anti-HBV activity was analysed in the stable transfected cell line HepAD38, which has been described to secrete high levels of HBV virion particles (Ladner et al., 1997). In brief, HepAD38 cells were cultured at 37° C. at 5% CO2 and 95% humidity in 200 μl maintenance medium, which was Dulbecco's modified Eagle's medium/Nutrient Mixture F-12 (Gibco, Karlsruhe), 10% fetal bovine serum (PAN Biotech Aidenbach) supplemented with 50 μg/ml penicillin/streptomycin (Gibco, Karlsruhe), 2 mM L-glutamine (PAN Biotech, Aidenbach), 400 μg/ml G418 (AppliChem, Darmstadt) and 0.3 μg/ml tetracycline. Cells were subcultured once a week in a 1:5 ratio, but were usually not passaged more than ten times. For the assay 60,000 cells were seeded in maintenance medium without any tetracycline into each well of a 96-well plate and treated with serial half-log dilutions of test compound. To minimize edge effects the outer 36 wells of the plate were not used but were filled with assay medium. On each assay plate six wells for the virus control (untreated HepAD38 cells) and six wells for the cell control (HepAD38 cells treated with 0.3 μg/ml tetracycline) were allocated, respectively. In addition, one plate set with reference inhibitors like BAY 41-4109, entecavir, and lamivudine instead of screening compounds were prepared in each experiment. In general, experiments were performed thrice in triplicates. At day 6 HBV DNA from 100 μl filtrated cell culture supernatant (AcroPrep Advance 96 Filter Plate, […] Supor membran, PALL GmbH, Dreieich) was automatically purified on the MagNa Pure LC instrument using the MagNA Pure 96 DNA and Viral NA Small Volume Kit (Roche Diagnostics, Mannheim) according to the instructions of the manufacturer. EC50 values were calculated from relative copy numbers of HBV DNA In brief, 5 μl of the 100 μl eluate containing HBV DNA were subjected to PCR LC480 Probes Master Kit (Roche) together with 1 μM antisense primer […], 0.5 μM sense primer […], 0.3 μM hybprobes […]-FL and LC640-[…]-PH (TIBMolBiol, Berlin) to a final volume of […]. The PCR was performed on the Light Cycler 480 real time system (Roche Diagnostics, Mannheim) using the following protocol: Pre-incubation for 1 min at 95° C., amplification: 40 cycles×(10 sec at 95° C., 50 sec at 60° C., 1 sec at 70° C.), cooling for 10 sec at 40° C. Viral load was quantitated against known standards using HBV plasmid DNA of pCH-9/3091 (Nassal et al., 1990, Cell 63: 1357-1363) and the LightCycler 480 SW 1.5 software (Roche Diagnostics, Mannheim) and EC50 values were calculated using non-linear regression with GraphPad Prism 6 (GraphPad Software Inc., La Jolla, USA).

**Q.** For CC1Cn2ncc(C(=O)N(C)C3(COC(F)F)CC3)c2CN1C(=O)c1cc2c(Cl)cccn2c1 (stereo not shown) [Example 9, 5-(8-chloroindolizine-2-carbonyl)-N-{1-[(difluoromethoxy)methyl]cyclopropyl}-N,6-dimethyl-4H,5H,6H,7H-pyrazolo[1,5-a]pyrazine-3-carboxamide], which IC50 [1] is on record?
**A.** < 5 µM

**Q.** What about the EC50 (HBV) of the same compound?
**A.** < 1 µM

**Q.** Which IC50 [1] does the source give for CC1Cc2[nH]nc(-c3cscn3)c2CN1C(=O)c1cc2cccc(Cl)n2c1 (stereo not shown) [Example 20, 5-chloro-2-[6-methyl-3-(1,3-thiazol-4-yl)-1H,4H,5H,6H,7H-pyrazolo[4,3-c]pyridine-5-carbonyl]indolizine] here?
**A.** 5 to 10 µM

**Q.** What about the EC50 (HBV) of the same compound?
**A.** < 1 µM

**Q.** What does the source list for CC(NC(=O)c1onc2c1CN(C(=O)c1cc3ccccn3c1)CC2)C(F)(F)F (stereo not shown) [Example 53, 5-(indolizine-2-carbonyl)-N-(1,1,1-trifluoropropan-2-yl)-4H,5H,6H,7H-[1,2]oxazolo[4,3-c]pyridine-3-carboxamide]?
**A.** IC50 [1]: < 5 µM; EC50 (HBV): < 1 µM

**Q.** What does the source list for CC(NC(=O)c1noc2c1CN(C(=O)c1cc3ccccn3c1)CC2)C(F)(F)F (stereo not shown) [Example 51, 5-(indolizine-2-carbonyl)-N-(1,1,1-trifluoropropan-2-yl)-4H,5H,6H,7H-[1,2]oxazolo[4,5-c]pyridine-3-carboxamide]?
**A.** IC50 [1]: < 5 µM; EC50 (HBV): < 1 µM

**Q.** CC1Cc2[nH]nc(-c3cscn3)c2CN1C(=O)c1cc2cc(Cl)c(F)cn2c1 (stereo not shown) [Example 22, 7-chloro-6-fluoro-2-[6-methyl-3-(1,3-thiazol-4-yl)-1H,4H,5H,6H,7H-pyrazolo[4,3-c]pyridine-5-carbonyl]indolizine] was tested. Which IC50 [1] did it give?
**A.** 5 to 10 µM

**Q.** What about the EC50 (HBV) of the same compound?
**A.** < 1 µM

**Q.** For CC1Cc2[nH]nc(-c3cscn3)c2CN1C(=O)c1cc2ccc(Cl)cn2c1 (stereo not shown) [Example 21, 6-chloro-2-[6-methyl-3-(1,3-thiazol-4-yl)-1H,4H,5H,6H,7H-pyrazolo[4,3-c]pyridine-5-carbonyl]indolizine], which IC50 [1] is on record?
**A.** 5 to 10 µM

**Q.** What about the EC50 (HBV) of the same compound?
**A.** < 1 µM

**Q.** Which results are given for CN(C(=O)c1cnn2c1CN(C(=O)c1cc3cccc(Cl)n3c1)CC2)C1(COC(F)F)CC1 [Example 8, 5-(5-chloroindolizine-2-carbonyl)-N-{1-[(difluoromethoxy)methyl]cyclopropyl}-N-methyl-4H,5H,6H,7H-pyrazolo[1,5-a]pyrazine-3-carboxamide]?
**A.** IC50 [1]: < 5 µM; EC50 (HBV): 1 to 10 µM

**Q.** For Cc1cccc2cc(C(=O)N3Cc4c(-c5cscn5)n[nH]c4CC3C)cn12 (stereo not shown) [Example 16, 5-methyl-2-[6-methyl-3-(1,3-thiazol-4-yl)-1H,4H,5H,6H,7H-pyrazolo[4,3-c]pyridine-5-carbonyl]indolizine], which IC50 [1] is on record?
**A.** 5 to 10 µM

**Q.** And the EC50 (HBV)?
**A.** 1 to 10 µM

**Q.** Which results are given for CC1Cc2[nH]nc(-c3cscn3)c2CN1C(=O)c1cc2c(Cl)cccn2c1 (stereo not shown) [Example 10, 8-chloro-2-[6-methyl-3-(1,3-thiazol-4-yl)-1H,4H,5H,6H,7H-pyrazolo[4,3-c]pyridine-5-carbonyl]indolizine]?
**A.** IC50 [1]: < 5 µM; EC50 (HBV): < 1 µM

**Q.** Which results are given for Cc1cccn2cc(C(=O)N3Cc4c(-c5cscn5)n[nH]c4CC3C)cc12 (stereo not shown) [Example 17, 8-methyl-2-[6-methyl-3-(1,3-thiazol-4-yl)-1H,4H,5H,6H,7H-pyrazolo[4,3-c]pyridine-5-carbonyl]indolizine]?
**A.** IC50 [1]: < 5 µM; EC50 (HBV): < 1 µM

**Q.** Which IC50 [1] does the source give for COCC1(N(C)C(=O)c2[nH]nc3c2CN(C(=O)c2cc4c(F)cc(F)cn4c2)CC3)CC1 [Example 5, 5-(6,8-difluoroindolizine-2-carbonyl)-N-[1-(methoxymethyl)cyclopropyl]-N-methyl-2H,4H,5H,6H,7H-pyrazolo[4,3-c]pyridine-3-carboxamide] here?
**A.** < 5 µM

**Q.** And the EC50 (HBV)?
**A.** < 1 µM

**Q.** Which IC50 [1] does the source give for CC1Cc2[nH]nc(-c3cscn3)c2CN1C(=O)c1cc2ccc(F)cn2c1 (stereo not shown) [Example 23, 6-fluoro-2-[6-methyl-3-(1,3-thiazol-4-yl)-1H,4H,5H,6H,7H-pyrazolo[4,3-c]pyridine-5-carbonyl]indolizine] here?
**A.** < 5 µM

**Q.** What about the EC50 (HBV) of the same compound?
**A.** < 1 µM

**Q.** With COCC1(N(C)C(=O)c2[nH]nc3c2CN(C(=O)c2cc4c(Cl)cccn4c2)CC3)CC1 [Example 3, 5-(8-chloroindolizine-2-carbonyl)-N-[1-(methoxymethyl)cyclopropyl]-N-methyl-2H,4H,5H,6H,7H-pyrazolo[4,3-c]pyridine-3-carboxamide] as the compound, how does the IC50 [1] read?
**A.** < 5 µM

**Q.** What about the EC50 (HBV) of the same compound?
**A.** < 1 µM

**Q.** CN(C(=O)c1cnn2c1CN(C(=O)c1cc3c(Cl)cccn3c1)CC2)C1(COC(F)F)CC1 [Example 6, 5-(8-chloroindolizine-2-carbonyl)-N-{1-[(difluoromethoxy)methyl]cyclopropyl}-N-methyl-4H,5H,6H,7H-pyrazolo[1,5-a]pyrazine-3-carboxamide] was tested. Which IC50 [1] did it give?
**A.** < 5 µM

**Q.** And the EC50 (HBV)?
**A.** < 1 µM

**Q.** O=C(c1cc2c(F)cc(F)cn2c1)N1CCc2n[nH]c(C(=O)N3CC(F)(F)CC34CC4)c2C1 [Example 2, 6,8-difluoro-2-(3-{6,6-difluoro-4-azaspiro[2.4]heptane-4-carbonyl}-2H,4H,5H,6H,7H-pyrazolo[4,3-c]pyridine-5-carbonyl)indolizine] was tested. Which EC50 (HBV) did it give?
**A.** 1 to 10 µM

**Q.** O=C(c1cc2c(Cl)cccn2c1)N1CCc2n[nH]c(C(=O)N3CC(F)(F)CC34CC4)c2C1 [Example 1, 8-chloro-2-(3-{6,6-difluoro-4-azaspiro[2.4]heptane-4-carbonyl}-2H,4H,5H,6H,7H-pyrazolo[4,3-c]pyridine-5-carbonyl)indolizine] was tested. Which EC50 (HBV) did it give?
**A.** 1 to 10 µM

**Q.** CC(NC(=O)c1[nH]nc2c1CN(C(=O)c1cc3c(Cl)cccn3c1)CC2)C(F)(F)F (stereo not shown) [Example 49, 5-(8-chloroindolizine-2-carbonyl)-N-(1,1,1-trifluoropropan-2-yl)-2H,4H,5H,6H,7H-pyrazolo[4,3-c]pyridine-3-carboxamide] was tested. Which EC50 (HBV) did it give?
**A.** 1 to 10 µM
